# Measured values taken from patent EP1260509A1, “Uses of tocopherol esters” (Derma Developpement S.A.R.L., priority 2001, dated 2002).
# Experiments:
# tyrosine kinase = molecular target: T1, tyrosine kinase (Homo sapiens, UniProt P14679); experiment: Tyrosine kinase (tyrosinase) activity in human melanocytes, L-Dopamine substrate, absorbance at 475 nm; type: cell-based, humains; settings: hydroquinone 1 µg/mL (positive control), 72 h; témoin 0.044 ± 0.002
# T1 construct: endogenous in cells; host or cells: human melanocytes (cultured)
# Protocol: Les mélanocytes humains sont ensemencés à la densité de 50 000 cellules/cm^2 dans des plaques multipuits. Les cellules sont incubées à 37°C en atmosphère humide contenant 5% (v/v) de CO2. Le milieu de culture est le MCDB 153 supplémenté par l'EGF (5 ng/mL) (Sigma), l'insuline (5 µg/mL)(Sigma), l'hydrocortisone (5 ng/mL)(Sigma),du sérum de veau foetal (SVF) à 5 % (v/v)( Gibco). Le milieu de culture est remplacé après 24 heures de culture et supplémenté par des antibiotiques (Peni-Strepto)(Gibco) à 1% (V/v) contenant les différentes concentrations d'un ester de tocophéryle avec un acide gras mono ou polyinsaturé ( 1, 10 et 100 µg/mL).
# Une série « témoin positif» est constituée de cellules traitées à l'hydroquinone à 1 µg/mL.
# Les cellules sont incubées pendant 72 heures à 37°C en atmosphère humide contenant 5% (v/v) de CO2. A la fin de la période d'incubation, le milieu de culture est prélevé et la couche cellulaire rincée deux fois avec du PBS. 450 µL de Triton X100 à 1% (v/v) dans le PBS sont ajouté dans chaque puits. On agite pendant 10 minutes puis on ajoute 50 µL de L-Dopamine à 10 mM dans du PBS sans Ca^++ ni Mg ^++
# On laisse incuber pendant 1 heure à 37°C à l'abri de la lumière, puis on mesure l'absorption à 475 nm au spectrophotomètre. Tableau 1
# [1] = tested on: fibroblastes de derme humain; experiment: Mitochondrial activity of human dermal fibroblasts (rhodamine 123 fluorescence, semi-quantitative score); type: cell-based; settings: antimycine 0,5 µM (positive control), 72 h
# Protocol: Les fibroblastes de derme humain sont ensemencées à la densité de 5000 cellules/cm^2 dans 500 µl de milieu IMDM supplémenté par du SVF 10% pendant 24 heures en atmosphère humide contenant 5% (v/v) de CO2
# Après 24 heures, les cellules sont mises en contact avec les différentes concentrations d'un ester de tocophéryle avec un acide gras mono ou polyinsaturé ( 10, 50 et 100 µg/ml).
# Une série « témoin positif» est constituée de cellules traitées à l'antimycine à 0,5 µM.
# Principe : L'incorporation cellulaire de rhodamine 123 est la conséquence de la variation du potentiel transmembranaire mitochondrial. L'évaluation semi-quantitative de la respiration mitochondriale est basée sur l'intensité de la fluorescence à l'intérieur de la cellule.
# Les cellules sont incubées pendant 72 heures à 37°C en atmosphère humide contenant 5% (v/v) de CO2. A la fin de la période d'incubation, le milieu de culture est prélevé et la couche cellulaire rincée deux fois avec du milieu IMDM puis mise dans 500 µl de tampon phosphate pH 7.2 contenant 0.1 mg/ml de rhodamine 123.
# On laisse incuber pendant 15 minutes à 37 °C, puis on mesure la fluorescence de façon semi-quantitative à l'aide d'une échelle de cotation.
# Echelle de cotation (Intensité de fluorescence) : 0 : cytoplasme non fluorescent, 1 : faible; 2 : moyennement intense; 3 : Importante; 4 : Très importante, tout le cytoplasme est fluorescent.
# T1 sequence (P14679 19-529): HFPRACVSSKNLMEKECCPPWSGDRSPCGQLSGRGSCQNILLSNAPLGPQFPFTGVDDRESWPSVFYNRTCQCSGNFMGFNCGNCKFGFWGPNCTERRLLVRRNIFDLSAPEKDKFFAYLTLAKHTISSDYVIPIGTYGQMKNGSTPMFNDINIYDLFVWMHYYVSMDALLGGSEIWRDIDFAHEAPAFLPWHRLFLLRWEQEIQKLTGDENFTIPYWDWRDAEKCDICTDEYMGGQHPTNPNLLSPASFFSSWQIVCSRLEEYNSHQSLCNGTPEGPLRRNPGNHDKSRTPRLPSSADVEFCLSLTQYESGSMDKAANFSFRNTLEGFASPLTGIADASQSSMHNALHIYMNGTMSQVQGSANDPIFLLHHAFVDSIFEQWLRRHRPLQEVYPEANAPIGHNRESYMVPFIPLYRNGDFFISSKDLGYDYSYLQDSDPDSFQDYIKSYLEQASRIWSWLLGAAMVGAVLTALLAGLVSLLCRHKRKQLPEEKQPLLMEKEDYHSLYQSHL
Compound,moyenne absorbance à 475 nm (tyrosine kinase),"cellules, intensité de fluorescence 4 : Très importante, tout le cytoplasme est fluorescent ([1]; témoin 12,3 ± 2,1)","cellules, intensité de fluorescence 0 : cytoplasme non fluorescent ([1]; témoin 17,7 ± 2,1)","cellules, intensité de fluorescence 1 : faible ([1]; témoin 21,0 ± 2,9)","cellules, intensité de fluorescence 2 : moyennement intense ([1]; témoin 25,0 ± 2,4)","cellules, intensité de fluorescence 3 : Importante ([1]; témoin 25,7 ± 3,1)"
Oc1ccc(O)cc1 [hydroquinone],0.024 ± 0.001,,,,,
antimycine,,"10,7 ± 2,5","25,0 ± 4,1","16,3 ± 1,9","20,0 ± 1,6","13,3 ± 2,4"
